The text below walks through data of patent publication US20230416209A1, “COMPOUNDS AND METHODS TO TARGET GLUCOSE-STIMULATED PHOSPHOHISTIDINE SIGNALING AND ESOPHAGEAL CANCER GROWTH” (Health Research, Inc., priority 2020, published 2023).

For one assay, the system named is TE10 cells. Nature of the assay: WST-1 proliferation assay, TE10 cells. The note with it: Homo sapiens, TE-10; medium containing 5% FBS, 48 hr, WST-1 assay; read-out: IC^50, TE10. The assay is classed as cell-based.
The test system of a further assay is ESCC (KYSE520) cells. Briefly: WST1 analysis of cisplatin combined with FAK H58 inhibitor, KYSE520. It counts as cell-based. Here is the method:
ESCC (KYSE520) cells were seeded on a 96-well plate at a density of 2000 cells/well in complete medium. The next day, medium was replaced with the serum-reduced medium (5% FBS) containing 0-80 μM of cisplatin and 5 fixed doses of H5 (0 μM, 5 μM, 10 μM, 20 μM, or 40 μM). The cells were kept for 72 hrs. WST1 analysis, a MTT-like assay, was performed to assess proliferation. Log (inhibition) vs. response—variable (four parameters). Prism was utilized to find the best-fit value and to calculate a complete confidence interval.
Synergistic effects of the chemotherapy drug combined with FAK H58 inhibitor. Chemotherapies are commonly used treatments for patients with ESCC. It was sought to determine whether the inhibition of glucose-induced G1-to-S phase transition of the cell cycle coupled with the interruption of DNA synthesis by chemotherapeutic agents is synergistic. ESCC cells (KYSE70 and KYSE520) were cultured in the medium containing reduced FBS (5%), 0-80 μM of cisplatin and 5 fixed doses of H5 (0, 5, 10, 20, or 40 μM) for 72 hr. Cell proliferation was assessed using WST1, a MTT-like reagent.
To assess the synergistic effects of cisplatin coupled with the FAK H58 inhibitor derivative (H5A), ESCC cells (KYSE70 and KYSE520) were treated with 0-80 μM of cisplatin and 5 fixed doses of H5 Å for 72 hr. The H5 derivative H5 Å enhanced the inhibitory effects of cisplatin in KYSE70 from 4 to 2 μM (FIG. 7) and in KYSE520 from 27 to 24 μM (FIG. 8), respectively.
(Formazan colour is commonly taken as a measure of viable cells.)

Another assay relates to ESCC (KYSE70) cells. Briefly: WST1 analysis of cisplatin combined with FAK H58 inhibitor, KYSE70. The assay is classed as cell-based. Particulars: KYSE70, 72 hr. Here is the method:
ESCC (KYSE70) cells were seeded on a 96-well plate at a density of 2000 cells/well in complete medium. The next day, medium was replaced with the serum-reduced medium (5% FBS) containing 0-80 μM of cisplatin and 5 fixed doses of H5 (0 μM, 5 μM, 10 μM, 20 μM, or 40 μM). The cells were kept for 72 hrs. WST1 analysis, a MTT-like assay, was performed to assess proliferation. Log (inhibition) vs. response-variable (four parameters). Prism was utilized to find the best-fit value and to calculate a complete confidence interval. […] ESCC (KYSE70) cells were seeded on a 96-well plate at a density of 2000 cells/well in complete medium. The next day, medium was replaced with the serum-reduced medium (5% FBS) containing 0-80 μM of cisplatin and 5 fixed doses of H5 (0 μM, 5 μM, 10 μM, 20 μM, or 40 μM). The cells were kept for 72 hrs. WST1 analysis, a MTT-like assay, was performed to assess proliferation. Log (inhibition) vs. response-variable (four parameters). Prism was utilized to find the best-fit value and to calculate a complete confidence interval. Synergistic effects of the chemotherapy drug combined with FAK H58 inhibitor. Chemotherapies are commonly used treatments for patients with ESCC. […] Cell proliferation was assessed using WST1, a MTT-like reagent. […]

The next assay deals with FAK^pHis58. Briefly: Glc-induced phosphorylation of FAK H58 in KYSE70 cells. Particulars: KYSE70 cells stimulated by Glc in the absence of growth factors. It counts as cell-based. Here is the method:
(§1) A. Top ranked small molecules that bind to FAK H58 site. B. FAK^His58 inhibitors attenuate Glc-induced phosphorylation of FAK H58. In the absence of growth factors, KYSE70 cells were stimulated by Glc with or without FAK^His58 inhibitors (H5). N=3, **: p<0.001 vs vehicle+Glc. C. Dose responses of FAK^His58 inhibitors on proliferation. KYSE70 cells were incubated in serum-free medium containing Glc, BrdU and varied concentrations of FAK^His58 inhibitors (H5). BrdU coupling ELISA was performed to assess the relative levels of newly synthesized BrdU-DNA. IC^50 values were calculated.
(§2) Reproducible test: BrdU coupling ELISA, pHis-FAK assays and IP/IB were performed to confirm the FAK H58 hit inhibition of ESCC proliferation, phosphorylation of FAK on H58 and FAK-RB1 interaction (FIGS. 2-4).

The target in a further assay is FAK-RB1 interaction (Homo sapiens, UniProt Q05397). Nature of the assay: FAK-RB1 interaction assay (rFAK/rRB1 co-IP ELISA). The assay is classed as biochemical. Particulars: rFAK with 0-10 μM for 1 hr, then rRB1 3 hr. Here is the method: Then, rRB1 was added to mixture and kept at room temperature for 3 hr. The mixture was added to the anti-FAK antibody-coated plated. After extensive washing, the co-IPed rRB1 was detected using an anti-RB1 antibody.
A general note: In an ELISA, binding on a coated surface is turned into a signal by an enzyme label.

For the next assay, the system named is TE9. Briefly: WST-1 proliferation assay, TE9 cells. The assay is classed as cell-based. The note with it: Homo sapiens, TE-9; medium containing 5% FBS, 48 hr, WST-1 assay; read-out: IC^50 of H5 on ESCC cells, TE9.
A further assay has as its system KYSE70 cells. Briefly: BrdU coupling ELISA of Glc-induced ESCC cell proliferation. The assay is classed as cell-based. The note with it: Homo sapiens, KYSE-70, serum-free medium containing Glc, BrdU and varied concentrations of inhibitor, read-out: IC^50 on ESCC cell proliferation. Here is the method:
as §1, §2

The subject of the next assay is KYSE70. Nature of the assay: WST-1 proliferation assay, KYSE70 cells. The assay is classed as cell-based. The note with it: Homo sapiens, KYSE-70; medium containing 5% FBS, 48 hr, WST-1 assay; read-out: IC^50 of H5 on ESCC cells, KYSE70.
Another assay has as its system NME1 (Homo sapiens). Nature of the assay: NME1-catalyzed histidine phosphorylation of recombinant FAK (pHis-rFAK ELISA). It counts as biochemical. The note with it: purified NME1 and rFAK, 0-1 μM, 3 hr. From the text:
A. Assessment of Glc-altered NM1 phosphorylation of pHis-FAK. NME1 was pulldown with an anti-NME1 antibody from KYSE70 cells +/−Glc stimulation and added to the anti-pHis antibody (rabbit)-coated wells. The anti-FAK (mouse) was used to detect the pHis-FAK on the plate. N=3, *: p<0.05, ***: p<0.001 and ****: p<0.0001 vs No NME1 or NME1 (−Glc). B. Glc increases NME1 in xenograft lysates derived from fasting mice +/−Glc. C. H5 attenuates NME1-increased levels of pHis-rFAk. Purified NMR1 and recombinant FAK (rFAK) were incubated in the NME kinase buffer in the presence of varied concentrations (0-1 μM) of vehicle of H5 for 3 hr. The relative levels of pHis-rFAK were assessed using ELISA.

Read-outs that look alike come from different tables or passages of the source.

Sequence of NME1 (Homo sapiens) (Q05397 whole entry): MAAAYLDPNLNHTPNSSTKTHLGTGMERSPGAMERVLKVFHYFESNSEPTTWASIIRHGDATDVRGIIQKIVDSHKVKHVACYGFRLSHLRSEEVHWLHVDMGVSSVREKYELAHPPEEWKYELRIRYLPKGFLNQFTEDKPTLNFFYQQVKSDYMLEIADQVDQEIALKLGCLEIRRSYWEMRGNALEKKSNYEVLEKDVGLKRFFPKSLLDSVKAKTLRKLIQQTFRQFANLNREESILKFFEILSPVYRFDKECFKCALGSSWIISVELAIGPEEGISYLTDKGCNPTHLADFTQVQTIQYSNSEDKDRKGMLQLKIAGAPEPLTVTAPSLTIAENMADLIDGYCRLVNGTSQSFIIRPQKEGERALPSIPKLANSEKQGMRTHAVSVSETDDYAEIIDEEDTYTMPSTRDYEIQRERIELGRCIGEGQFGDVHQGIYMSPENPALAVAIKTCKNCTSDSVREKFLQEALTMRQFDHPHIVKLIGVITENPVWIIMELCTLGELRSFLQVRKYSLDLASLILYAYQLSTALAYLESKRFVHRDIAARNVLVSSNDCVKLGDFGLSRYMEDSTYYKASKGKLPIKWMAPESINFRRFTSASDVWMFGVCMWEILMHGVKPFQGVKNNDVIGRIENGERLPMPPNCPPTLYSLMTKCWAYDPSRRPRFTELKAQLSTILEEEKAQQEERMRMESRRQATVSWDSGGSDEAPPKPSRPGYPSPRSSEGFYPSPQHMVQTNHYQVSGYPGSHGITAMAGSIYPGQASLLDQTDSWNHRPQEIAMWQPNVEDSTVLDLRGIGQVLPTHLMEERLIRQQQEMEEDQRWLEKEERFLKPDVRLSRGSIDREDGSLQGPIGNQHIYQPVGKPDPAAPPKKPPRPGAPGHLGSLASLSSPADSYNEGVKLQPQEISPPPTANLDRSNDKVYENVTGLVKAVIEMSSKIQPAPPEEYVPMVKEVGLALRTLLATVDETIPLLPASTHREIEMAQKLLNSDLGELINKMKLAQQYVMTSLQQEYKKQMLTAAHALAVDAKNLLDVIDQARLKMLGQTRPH
Sequence of FAK-RB1 interaction (Q05397 whole entry): as above

Consider `CCOC(=O)CSc1nnc(-c2ccccc2)c(-c2ccccc2)n1` [H5B, ethyl [(5,6-diphenyl-1,2,4-triazin-3-yl)thio]acetate], for which, in the assay with TE10 cells, the IC50 was 0.065 µM.
On to `N.N.[Cl][Pt][Cl]` [cisplatin], for which the IC50 in the assay on ESCC (KYSE520) cells (KYSE520, 5% FBS, 72 hr, before adding H5, read-out: IC50 of cisplatin) is 31 µM; in the assay with ESCC (KYSE520) cells (KYSE520, 5% FBS, 72 hr, fixed doses of H5 (5-40 μM), read-out: IC50 of cisplatin combined with H5) it was 23 µM; with ESCC (KYSE520) cells (KYSE520, 72 hr, before adding H5A, read-out: IC50 of cisplatin (inhibitory effects)) it was 27 µM; with ESCC (KYSE520) cells (KYSE520, 72 hr, fixed doses of H5A, read-out: IC50 of cisplatin combined with H5A) it was 24 µM; with ESCC (KYSE70) cells (before adding H5A, read-out: IC50 of cisplatin (inhibitory effects)), 4 µM; in the assay on ESCC (KYSE70) cells (fixed doses of H5A, read-out: IC50 of cisplatin combined with H5A), 2 µM.
On to `O=c1nc(-c2ccccc2)c(-c2ccccc2)n[nH]1` [H5, 5,6-diphenyl-1,2,4-triazin-3(2H)-one], for which the “Effect on Glc-induced FAK^pHis58” value in the assay on FAK^pHis58 is “decreased Glc-induced FAK^pHis58”. In addition, on FAK-RB1 interaction, the “Effect on FAK-RB1 interaction” value was “prevents Glc-induced FAK-RB1 interaction”. The IC50 in the assay on TE9 turned out to be 0.38 µM; with KYSE70 cells, 9 µM; in the assay on KYSE70 it was 5.7 µM; in the assay with TE10 cells, 0.088 µM. Also, the “Effect of combination with cisplatin on proliferation” value in the assay with ESCC (KYSE520) cells (KYSE520, 72 hr) is on record as “enhanced the effects of cisplatin”. The “Effect on NME1-catalyzed FAK^pHis (pHis-rFAK levels)” value in the assay with NME1 (Homo sapiens) is “attenuates NME1-catalyzed FAK^pHis”.
